Experimental data: patent publication US7091033B2, “Array of toxicologically relevant canine genes and uses thereof” (Phase-1 Molecular Toxicology, Inc., priority 2000, dated 2006)
Like-named read-outs stand apart in the source and are kept apart here.

Tests used:
Type in all cases: in vivo
[1] = system: Cytochrome P450 2D (gene expression); experiment: Canine array gene expression profile of liver from dog dosed with erythromycin estolate; settings: dog, liver, 100 mg/kg
Procedure: (§1) For liver or kidney, about 0.15-0.20 g of tissue was weighed and placed in a 15 ml conical tube. All tissue were kept on dry ice when other samples were being weighed.
(§2) About 3.8 ml of RLT buffer was added to the tube containing the sample. The RLT buffer® from Qiagen can be prepared beforehand by adding 10 μl betamercaptoethanol to each 1.0 ml of lysis buffer needed. The tissue was homogenized using the rotor-stator homogenizer for 45 seconds. A IKA Ultra Turrax T25 homogenizer set at speed 4 with the S25N-10G dispersing element can be used. Alternatively, a Virtishear Cyclone 750W rotor/stator homogenizer (Virtis item #278077) can be used with the 7 mm microfine sawtooth shaft and generator (195 mm long with a processing range of 0.25 ml to 20 ml, item #372718). After homogenization, samples were stored on ice until all samples were homogenized. To clean the homogenizing tip between samples, the tip was first run for a few seconds in 95% ethanol and then rinsed by squirting with fresh 95% ethanol. This process was repeated with nanopure water.
(§3) The tissue lysate was centrifuged at room temperature for 10 minutes at 3700-3800 rpm in a Beckman GS-6 (or equivalent) centrifuge to remove nuclei thus reducing DNA contamination.
(§4) The supernatant of the lysate was transferred to a clean 15 ml conical tubes containing an equal volume of 70% EtOH in DEPC treated H2O, being careful not to include any of the pellet or fatty layer and mixed. About 3.8 ml of sample was added to the RNeasy spin column placed in a 15 ml centrifuge tube and centrifuged at 3000×g (3690-3710 rpm, Beckman GS-6) for 5 min. The flow-through was discarded. The remaining sample was added to the appropriate column and spun at 3000×g for 5 minutes and the flow-through was discarded.
(§5) About 4.0 ml of Buffer RW1 (Qiagen®) was added to the column and spun as before then about 2.5 ml of buffer RPE (Qiagen®) was added to column and spun at 3000×g (3690-3710 rpm, Beckman GS-6) for 2 minutes. In this example, RPE buffer was supplied as a concentrate so 4 volumes of 95% EtOH was added before use. For the midi kit, about 220 ml of 95% EtOH would be added to 55 ml of RPE. Another 2.5 ml of buffer RPE was added and spun for 5 minutes to also dry out column. The column, including the tip, should be dry for the next elution step.
(§6) For elution, the column that has the RNA bound to a clean 15 ml tube was transferred and 200 μl of RNase-free water was added to the column, allowed to sit for 1 minute, and spun for 3 minutes at 3000×g (3690-3710 rpm, Beckman GS6). This step was repeated into the same tube but with 200 μl RNase-free water.
(§7) Liver and kidney organs were isolated from a dog which was dosed with erythromycin esolate at 100 mg/kg/day for 2 or 10 days. The dog was euthanized 16 hours after the last dosage and the organs were harvested according to standard sterile procedure. RNA was isolated from the kidney and liver as detailed in Example 1. cDNA was made from the RNA and used as probes as detailed in the Examples above.

[2] = system: Cytochrome P450 2C21 (gene expression); experiment: as above; settings: dog, liver, 100 mg/kg
Procedure: as §1, §2, §3, §4, §5, §6, §7

[3] = system: Cytochrome P450 2B (gene expression); experiment: as above; settings: dog, liver, 100 mg/kg
Procedure: as §1, §2, §3, §4, §5, §6, §7

[4] = system: canine liver gene expression; experiment: as above; settings: Canis lupus familiaris, 240 h, 10 days
Procedure: as §1, §2, §3, §4, §5, §6, §7

[5] = system: canine kidney gene expression; experiment: Canine array gene expression profile of kidney from dog dosed with erythromycin estolate; settings: Canis lupus familiaris, 240 h, 10 days
Procedure: as §1, §2, §3, §4, §5, §6, §7

[6] = system: Cytochrome P450 2C41; experiment: as above; settings: dog, kidney, 100 mg/kg
Procedure: as §1, §2, §3, §4, §5, §6, §7

[7] = system: Glutathione S-transferase alpha subunit; experiment: as above; settings: dog, kidney, 100 mg/kg
Procedure: as §1, §2, §3, §4, §5, §6, §7

[8] = system: Cytochrome P450 2C21; experiment: as above; settings: dog, kidney, 100 mg/kg
Procedure: as §1, §2, §3, §4, §5, §6, §7

[9] = system: Glucose transporter; experiment: as above; settings: dog, kidney, 100 mg/kg
Procedure: as §1, §2, §3, §4, §5, §6, §7

[10] = read-out: Alkaline phosphatase fold induction
[11] = read-out: Angiopoietin-related protein 3 (ANGPTL3) fold induction
[12] = read-out: Beta-glucuronidase fold induction
[13] = read-out: Catalase fold induction
[14] = read-out: Caveolin-2 fold induction
[15] = read-out: Cubilin fold induction
[16] = read-out: Cytochrome c oxidase subunit VIIaL fold induction
[17] = read-out: c-erb B-2 fold induction

CCC(=O)O[C@H]1[C@H](O[C@@H]2[C@@H](C)[C@H](O[C@H]3C[C@@](C)(OC)[C@@H](O)[C@H](C)O3)[C@@H](C)C(=O)O[C@H](CC)[C@@](C)(O)[C@H](O)[C@@H](C)C(=O)[C@H](C)C[C@@]2(C)O)O[C@H](C)C[C@@H]1N(C)C [erythromycin estolate]
fold induction at 10 days [1]: 1.1
fold induction at 10 days [2]: 1.3
fold induction at 10 days [3]: 1.9
fold induction at 100 mg/kg [4, 10]: 1.5
fold induction at 100 mg/kg [4, 11]: 1.5
fold induction at 100 mg/kg ([4]; read-out: BR-cadherin fold induction): 1.2
fold induction at 100 mg/kg ([4]; read-out: BRCA1 fold induction): 1.5
fold induction at 100 mg/kg [4, 12]: 1.5
fold induction at 100 mg/kg ([4]; read-out: Canis familiaris mitochondrion, complete genome fold induction): 1.1
fold induction at 100 mg/kg [4, 13]: 1.4
fold induction at 100 mg/kg [4, 14]: 1.2
fold induction at 100 mg/kg [4, 15]: 1.1
fold induction at 100 mg/kg ([4]; read-out: Cytochrome c oxidase subunit II fold induction): 1.6
fold induction at 100 mg/kg [4, 16]: 1
fold induction at 100 mg/kg [4, 17]: 1.3
fold induction at 100 mg/kg [5, 10]: 1.6
fold induction at 100 mg/kg [5, 11]: 1
fold induction at 100 mg/kg ([5]; read-out: BRCA1 fold induction): 1.2
fold induction at 100 mg/kg [5, 12]: 1.1
fold induction at 100 mg/kg [5, 13]: 1.2
fold induction at 100 mg/kg ([5]; read-out: Caveolin-1 fold induction): 1
fold induction at 100 mg/kg [5, 14]: 1.6
fold induction at 100 mg/kg [5, 15]: 1.1
fold induction at 100 mg/kg [5, 16]: 1
fold induction at 100 mg/kg ([5]; read-out: Decorin fold induction): 1.1
fold induction at 100 mg/kg ([5]; read-out: FGFR2 fold induction): 1.1
fold induction at 100 mg/kg ([5]; read-out: GRP94 fold induction): 1.1
fold induction at 100 mg/kg ([5]; read-out: Gadd45 fold induction): 1
fold induction at 100 mg/kg ([5]; read-out: Glucose-regulated protein 94 #1 fold induction): 1.4
fold induction at 100 mg/kg ([5]; read-out: N-cadherin fold induction): 1.1
fold induction at 100 mg/kg ([5]; read-out: Phase-1 CCT-4 fold induction): 1.1
fold induction at 100 mg/kg ([5]; read-out: Phase-1 CCT-8 fold induction): 1.1
fold induction at 100 mg/kg ([5]; read-out: Phase-1 CCT-12 fold induction): 1.1
fold induction at 100 mg/kg ([5]; read-out: Phase-1 CCT-13 fold induction): 1
fold induction at 100 mg/kg ([5]; read-out: Phase-1 CCT-14 fold induction): 1
fold induction at 100 mg/kg ([5]; read-out: Phase-1 CCT-16 fold induction): 1
fold induction at 100 mg/kg ([5]; read-out: Phase-1 CCT-17 fold induction): 1
fold induction at 100 mg/kg ([5]; read-out: Phase-1 CCT-18 fold induction): 1.2
fold induction at 100 mg/kg ([5]; read-out: Phase-1 CCT-19 fold induction): 1.2
fold induction at 100 mg/kg ([5]; read-out: Phase-1 CCT-27 fold induction): 1.4
fold induction at 100 mg/kg ([5]; read-out: Phase-1 CCT-30 fold induction): 1.3
fold induction at 100 mg/kg ([5]; read-out: Phase-1 CCT-31 fold induction): 1.1
fold induction at 100 mg/kg ([5]; read-out: Phase-1 CCT-32 fold induction): 1.1
fold induction at 100 mg/kg ([5]; read-out: Phase-1 CCT-33 fold induction): 1.1
fold induction at 100 mg/kg ([5]; read-out: Phase-1 CCT-34 fold induction): 1.1
fold induction at 100 mg/kg ([5]; read-out: Phase-1 CCT-36 fold induction): 1
fold induction at 100 mg/kg ([5]; read-out: Phase-1 CCT-40 fold induction): 1.2
fold induction at 100 mg/kg ([5]; read-out: Phase-1 CCT-41 fold induction): 1.2
fold induction at 100 mg/kg ([5]; read-out: Phase-1 CCT-42 fold induction): 1.1
fold induction at 100 mg/kg ([5]; read-out: Phase-1 CCT-43 fold induction): 1.2
fold induction at 100 mg/kg ([5]; read-out: Phase-1 CCT-49 fold induction): 1
fold induction at 100 mg/kg ([5]; read-out: Phase-1 CCT-50 fold induction): 1.1
fold induction at 100 mg/kg ([5]; read-out: Phase-1 CCT-51 fold induction): 1.2
fold induction at 100 mg/kg ([5]; read-out: Phase-1 CCT-52 fold induction): 1.1
fold induction at 100 mg/kg ([5]; read-out: Phase-1 CCT-53 fold induction): 1
fold induction at 100 mg/kg ([5]; read-out: Phase-1 CCT-55 fold induction): 1.1
fold induction at 100 mg/kg ([5]; read-out: Phase-1 CCT-56 fold induction): 1.1
fold induction at 100 mg/kg ([5]; read-out: Phase-1 CCT-58 fold induction): 1.5
fold induction at 100 mg/kg ([5]; read-out: Phase-1 CCT-59 fold induction): 1
fold induction at 100 mg/kg ([5]; read-out: Phase-1 CCT-60 fold induction): 1.1
fold induction at 100 mg/kg ([5]; read-out: Phase-1 CCT-62 fold induction): 1.1
fold induction at 100 mg/kg ([5]; read-out: Phase-1 CCT-65 fold induction): 1.1
fold induction at 100 mg/kg ([5]; read-out: Phase-1 CCT-66 fold induction): 1.1
fold induction at 100 mg/kg ([5]; read-out: Phase-1 CCT-73 fold induction): 1.1
fold induction at 100 mg/kg ([5]; read-out: Phase-1 CCT-76 fold induction): 1
fold induction at 100 mg/kg ([5]; read-out: Phase-1 CCT-82 fold induction): 1
fold induction at 100 mg/kg ([5]; read-out: Phase-1 CCT-84 fold induction): 1.1
fold induction at 100 mg/kg ([5]; read-out: Phase-1 CCT-87 fold induction): 1.2
fold induction at 100 mg/kg ([5]; read-out: Phase-1 CCT-88 fold induction): 1.2
fold induction at 100 mg/kg ([5]; read-out: Phase-1 CCT-89 fold induction): 1.1
fold induction at 100 mg/kg ([5]; read-out: Phase-1 CCT-91 fold induction): 1.1
fold induction at 100 mg/kg ([5]; read-out: Phase-1 CCT-93 fold induction): 1
fold induction at 100 mg/kg ([5]; read-out: Proliferating cell nuclear antigen gene fold induction): 1.1
fold induction at 100 mg/kg ([5]; read-out: Prostaglandin D synthase fold induction): 1.2
fold induction at 100 mg/kg ([5]; read-out: Rab2 fold induction): 1.2
fold induction at 100 mg/kg ([5]; read-out: Rab5 fold induction): 1.1
fold induction at 100 mg/kg ([5]; read-out: Rab7 fold induction): 1.4
fold induction at 100 mg/kg ([5]; read-out: Superoxide dismutase Mn fold induction): 1.1
fold induction at 100 mg/kg ([5]; read-out: TFCOUP-related (probable steroid hormone receptor) fold induction): 1.1
fold induction at 100 mg/kg ([5]; read-out: TPRD fold induction): 1.1
fold induction at 100 mg/kg ([5]; read-out: UV excision repair protein RAD 23 (XP-C) fold induction): 1.2
fold induction at 100 mg/kg [5, 17]: 1.4
fold induction at 100 mg/kg ([5]; read-out: p53 fold induction): 1.4
fold induction at 100 mg/kg ([5]; iv, read-out: ZAP36/annexin IV fold induction): 1.6
fold induction at 10 days [6]: 1.2
fold induction at 10 days [7]: 1.1
fold induction at 10 days [8]: 1.1
fold induction at 10 days [9]: 1.1
